Laboratory results published in patent US12252524B2, “GIP/GLP1 co-agonist compounds” (Eli Lilly and Company, priority 2018, dated 2025).
Numbered stars: 1 amine (or outer) side, 2 acyl side, 3 side chain; on linkers, the order of the positions; unused ones are H or OH. Square brackets hold non-standard residues; d marks the D form. Side chains are listed from the residue outwards. Peptide text beside a SMILES is read from it. * marks the point of attachment. C20 diacid = O=C(O)CCCCCCCCCCCCCCCCCCC(=O)*; αMePhe(2-F) = C[C@](N)(Cc1ccccc1F)C(=O)O; γGlu = O=C(O)[C@H](CCC(=O)[*:2])N[*:1]; 4Pal = N[C@@H](Cc1ccncc1)C(=O)O; αMeL = CC(C)C[C@](C)(N)C(=O)O; AEEA = NCCOCCOCC(=O)O; Aib = CC(C)(N)C(=O)O

Legend:
[1] = target: human GLP-1 receptor (GLP-1R) (Homo sapiens, UniProt P43220); experiment: cAMP pharmacological functional assay in presence of casein, hGLP-1R; format: cell-based; details: HEK293 cells expressing hGLP-1R, 0.1% Casein, geometric mean; read-out: hGLP1R cAMP Rel EC50 nM (SEM, n)
human GLP-1R = human GLP-1R (Homo sapiens, UniProt P43220); experiment: [125I]-GLP-1 binding (SPA), human GLP-1 receptor; design: expressed in transfected cells; crude membranes; details: read-out: hGLP1R Ki, (nM) (SEM, n)
How it was run: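 Frozen cell pellets are lysed on ice in hypotonic Tris buffer, pH 7.5, homogenized, and centrifuged to a membrane pellet resuspended at about 1 to 3 mg/mL. Binding is then measured in HEPES-based buffer at pH 7.4, and curves are fitted to give IC50 and Ki.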

human Gcg receptor = target: T1, human Gcg receptor (Homo sapiens, UniProt P47871); experiment: [125I]-Glucagon binding (SPA), human Gcg receptor; details: read-out: hGLcgR Ki, nM (SEM, n)
T1 construct: expressed in transfected cells; crude membranes
How it was run: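 Scintillation counts are taken after membranes and WGA beads incubate and settle for 12 hours at room temperature. Buffer is 25 mM HEPES, pH 7.4, with CaCl2, MgCl2, bacitracin and Tween-20. Ki values, from four-parameter IC50 fits, are geometric means over independent days.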

human GIP receptor = target: T2, human GIP receptor (Homo sapiens, UniProt P48546); experiment: [125I]-GIP binding (SPA), human GIP receptor; details: read-out: hGIPR Ki, nM (SEM, n)
T2 construct: expressed in transfected cells; crude membranes
T2 sequence (P48546 22-466): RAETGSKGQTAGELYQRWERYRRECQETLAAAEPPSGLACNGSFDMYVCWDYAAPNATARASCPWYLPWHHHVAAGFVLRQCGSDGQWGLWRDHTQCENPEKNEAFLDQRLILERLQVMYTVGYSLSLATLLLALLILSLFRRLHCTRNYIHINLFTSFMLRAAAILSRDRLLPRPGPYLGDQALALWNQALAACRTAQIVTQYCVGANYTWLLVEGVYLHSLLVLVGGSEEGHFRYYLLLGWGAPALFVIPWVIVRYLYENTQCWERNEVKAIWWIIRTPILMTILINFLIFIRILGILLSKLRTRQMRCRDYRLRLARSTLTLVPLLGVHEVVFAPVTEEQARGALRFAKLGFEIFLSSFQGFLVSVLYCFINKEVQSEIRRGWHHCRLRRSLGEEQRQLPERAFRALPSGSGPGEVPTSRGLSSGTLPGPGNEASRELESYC

[2] = target: T3, gastric inhibitory peptide receptor (GIPR) (Homo sapiens, UniProt P48546); experiment: cAMP pharmacological functional assay in presence of casein, hGIPR; format: cell-based; details: HEK293 cells expressing hGIPR, 0.1% Casein, geometric mean; read-out: hGIPR cAMP Rel EC50 nM (SEM, n)
T3 sequence (P48546 22-466): T2 sequence (P48546 22-466)

Chain of human GLP-1 receptor (GLP-1R) (P43220 24-463): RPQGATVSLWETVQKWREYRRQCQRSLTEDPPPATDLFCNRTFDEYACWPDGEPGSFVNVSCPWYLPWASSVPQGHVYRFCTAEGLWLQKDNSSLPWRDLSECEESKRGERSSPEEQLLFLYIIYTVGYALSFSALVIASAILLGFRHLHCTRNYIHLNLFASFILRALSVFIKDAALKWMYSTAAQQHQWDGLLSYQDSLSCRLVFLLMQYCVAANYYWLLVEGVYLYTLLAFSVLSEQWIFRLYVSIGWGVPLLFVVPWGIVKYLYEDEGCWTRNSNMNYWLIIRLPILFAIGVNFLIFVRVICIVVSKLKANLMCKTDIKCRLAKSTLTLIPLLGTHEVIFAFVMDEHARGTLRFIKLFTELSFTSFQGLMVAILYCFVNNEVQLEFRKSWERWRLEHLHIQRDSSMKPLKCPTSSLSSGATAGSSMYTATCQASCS
Chain of human GLP-1R (P43220 24-463): as above
T1 sequence (P47871 26-477): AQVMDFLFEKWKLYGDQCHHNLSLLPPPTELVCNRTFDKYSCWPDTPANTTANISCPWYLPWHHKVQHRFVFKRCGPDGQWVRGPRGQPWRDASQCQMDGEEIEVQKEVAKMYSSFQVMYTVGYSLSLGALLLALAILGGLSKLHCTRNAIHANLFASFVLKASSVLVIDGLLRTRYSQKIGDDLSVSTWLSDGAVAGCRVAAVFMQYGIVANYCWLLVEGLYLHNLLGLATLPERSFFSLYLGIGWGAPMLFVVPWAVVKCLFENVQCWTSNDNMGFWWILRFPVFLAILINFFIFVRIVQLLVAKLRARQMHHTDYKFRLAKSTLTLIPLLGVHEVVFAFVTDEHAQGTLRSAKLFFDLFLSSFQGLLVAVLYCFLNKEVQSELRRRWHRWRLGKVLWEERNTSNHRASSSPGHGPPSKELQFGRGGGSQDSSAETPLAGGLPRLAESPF

Compound	EC50 [1] [nM]	Ki (human GLP-1R) [nM]	Ki (human Gcg receptor) [nM]	Ki (human GIP receptor) [nM]	EC50 [2] [nM]
CC[C@H](C)[C@H](NC(=O)[C@H](CC(C)C)NC(=O)[C@H](Cc1ccc(O)cc1)NC(=O)[C@H](CCC(=O)O)NC(=O)[C@@H](NC(=O)[C@H](Cc1ccccc1)NC(=O)[C@H](CCC(=O)O)NC(=O)C(C)(C)NC(=O)[C@H](CCC(N)=O)NC(=O)[C@H](C)NC(=O)[C@H](CCCCNC(=O)COCCOCCNC(=O)COCCOCCNC(=O)CC[C@H](NC(=O)CCCCCCCCCCCCCCCCCCC(=O)O)C(=O)O)NC(=O)[C@H](CCC(=O)O)NC(=O)[C@H](CC(=O)O)NC(=O)[C@H](CC(C)C)NC(=O)[C@](C)(CC(C)C)NC(=O)[C@@H](NC(=O)[C@H](CO)NC(=O)[C@H](Cc1ccncc1)NC(=O)[C@H](CC(=O)O)NC(=O)[C@H](CO)NC(=O)[C@@H](NC(=O)[C@](C)(Cc1ccccc1F)NC(=O)[C@@H](NC(=O)CNC(=O)[C@H](CCC(=O)O)NC(=O)C(C)(C)NC(=O)[C@@H](N)Cc1ccc(O)cc1)[C@@H](C)O)[C@@H](C)O)[C@@H](C)CC)[C@@H](C)CC)C(=O)N[C@@H](CCC(=O)O)C(=O)NCC(=O)NCC(=O)N1CCC[C@H]1C(=O)N[C@@H](CO)C(=O)N[C@@H](CO)C(=O)NCC(=O)N[C@@H](C)C(=O)N1CCC[C@H]1C(=O)N1CCC[C@H]1C(=O)N1CCC[C@H]1C(=O)N[C@@H](CO)C(N)=O [Example 158] (H-Y[Aib]EGT[αMePhe(2-F)]TSD[4Pal]SI[αMeL]LDEK([AEEA-AEEA-γGlu-C20 diacid])AQ[Aib]EFIEYLIEGGPSSGAPPPS-NH2; N-terminus assumed)	0.0374	11.8	285	0.114	0.0454
CC[C@H](C)[C@H](NC(=O)[C@H](CC(C)C)NC(=O)[C@H](Cc1ccc(O)cc1)NC(=O)[C@@H](CCC(=O)O)NC(=O)[C@@H](NC(=O)[C@H](Cc1ccccc1)NC(=O)[C@@H](NC(=O)C(C)(C)NC(=O)[C@H](CCC(N)=O)NC(=O)[C@H](C)NC(=O)[C@H](CCCCNC(=O)COCCOCCNC(=O)COCCOCCNC(=O)CC[C@H](NC(=O)CCCCCCCCCCCCCCCCCCC(=O)O)C(=O)O)NC(=O)[C@H](CCC(=O)O)NC(=O)[C@H](CC(=O)O)NC(=O)[C@H](CC(C)C)NC(=O)[C@](C)(CC(C)C)NC(=O)[C@@H](NC(=O)[C@H](CO)NC(=O)C(C)(C)NC(=O)[C@H](CC(=O)O)NC(=O)[C@H](CO)NC(=O)[C@@H](NC(=O)[C@](C)(Cc1ccccc1F)NC(=O)[C@@H](NC(=O)CNC(=O)[C@H](CCC(=O)O)NC(=O)C(C)(C)NC(=O)[C@@H](N)Cc1ccc(O)cc1)[C@@H](C)O)[C@@H](C)O)[C@@H](C)CC)[C@@H](C)O)[C@@H](C)CC)C(=O)N[C@@H](CCC(=O)O)C(=O)NCC(=O)NCC(=O)N1CCC[C@H]1C(=O)N[C@@H](CO)C(=O)N[C@@H](CO)C(=O)NCC(=O)N[C@@H](C)C(=O)N1CCC[C@H]1C(=O)N1CCC[C@H]1C(=O)N1CCC[C@H]1C(=O)N[C@@H](CO)C(N)=O [Example 160] (H-Y[Aib]EGT[αMePhe(2-F)]TSD[Aib]SI[αMeL]LDEK([AEEA-AEEA-γGlu-C20 diacid])AQ[Aib]TFI[dE]YLIEGGPSSGAPPPS-NH2)	0.0461	14.4	> 1060	5.98	21
CC[C@H](C)[C@H](NC(=O)[C@H](CC(C)C)NC(=O)[C@H](Cc1ccc(O)cc1)NC(=O)[C@H](CCC(=O)O)NC(=O)[C@@H](NC(=O)[C@H](Cc1ccccc1)NC(=O)[C@H](CCC(=O)O)NC(=O)C(C)(C)NC(=O)[C@H](CCC(N)=O)NC(=O)[C@H](C)NC(=O)[C@H](CCCCNC(=O)COCCOCCNC(=O)COCCOCCNC(=O)CC[C@H](NC(=O)CCCCCCCCCCCCCCCCCCC(=O)O)C(=O)O)NC(=O)[C@H](CCC(=O)O)NC(=O)[C@H](CC(=O)O)NC(=O)[C@H](CC(C)C)NC(=O)[C@](C)(CC(C)C)NC(=O)[C@@H](NC(=O)[C@H](CO)NC(=O)[C@H](Cc1ccc(O)cc1)NC(=O)[C@H](CC(=O)O)NC(=O)[C@H](CO)NC(=O)[C@@H](NC(=O)[C@](C)(Cc1ccccc1F)NC(=O)[C@@H](NC(=O)CNC(=O)[C@H](CCC(=O)O)NC(=O)C(C)(C)NC(=O)[C@@H](N)Cc1c[nH]cn1)[C@@H](C)O)[C@@H](C)O)[C@@H](C)CC)[C@@H](C)CC)C(=O)N[C@@H](CCC(=O)O)C(=O)NCC(=O)NCC(=O)N1CCC[C@H]1C(=O)N[C@@H](CO)C(=O)N[C@@H](CO)C(=O)NCC(=O)N[C@@H](C)C(=O)N1CCC[C@H]1C(=O)N1CCC[C@H]1C(=O)N1CCC[C@H]1C(=O)N[C@@H](CO)C(N)=O [Example 163] (H-H[Aib]EGT[αMePhe(2-F)]TSDYSI[αMeL]LDEK([AEEA-AEEA-γGlu-C20 diacid])AQ[Aib]EFIEYLIEGGPSSGAPPPS-NH2)	0.0316	10.8	117	0.116	0.121
CC[C@H](C)[C@H](NC(=O)[C@H](CC(C)C)NC(=O)[C@H](Cc1ccc(O)cc1)NC(=O)C(C)(C)NC(=O)[C@@H](NC(=O)[C@H](Cc1ccccc1)NC(=O)[C@H](CCC(=O)O)NC(=O)C(C)(C)NC(=O)[C@H](CCC(N)=O)NC(=O)[C@H](C)NC(=O)[C@H](CCCCNC(=O)COCCOCCNC(=O)COCCOCCNC(=O)CC[C@H](NC(=O)CCCCCCCCCCCCCCCCCCC(=O)O)C(=O)O)NC(=O)[C@H](CCC(=O)O)NC(=O)[C@H](CC(=O)O)NC(=O)[C@H](CC(C)C)NC(=O)[C@](C)(CC(C)C)NC(=O)[C@@H](NC(=O)[C@H](CO)NC(=O)[C@H](Cc1ccncc1)NC(=O)[C@H](CC(=O)O)NC(=O)[C@H](CO)NC(=O)[C@@H](NC(=O)[C@](C)(Cc1ccccc1F)NC(=O)[C@@H](NC(=O)CNC(=O)[C@H](CCC(=O)O)NC(=O)C(C)(C)NC(=O)[C@@H](N)Cc1ccc(O)cc1)[C@@H](C)O)[C@@H](C)O)[C@@H](C)CC)[C@@H](C)CC)C(=O)N[C@@H](CCC(=O)O)C(=O)NCC(=O)NCC(=O)N1CCC[C@H]1C(=O)N[C@@H](CO)C(=O)N[C@@H](CO)C(=O)NCC(=O)N[C@@H](C)C(=O)N1CCC[C@H]1C(=O)N1CCC[C@H]1C(=O)N1CCC[C@H]1C(=O)N[C@@H](CO)C(N)=O [Example 189] (H-Y[Aib]EGT[αMePhe(2-F)]TSD[4Pal]SI[αMeL]LDEK([AEEA-AEEA-γGlu-C20 diacid])AQ[Aib]EFI[Aib]YLIEGGPSSGAPPPS-NH2)	0.0608	8.81	146	0.128	0.0775
CC[C@H](C)[C@H](NC(=O)[C@H](CC(C)C)NC(=O)[C@H](Cc1ccc(O)cc1)NC(=O)[C@@H](CCC(=O)O)NC(=O)[C@@H](NC(=O)[C@H](Cc1ccccc1)NC(=O)[C@H](CCC(=O)O)NC(=O)C(C)(C)NC(=O)[C@H](CCC(N)=O)NC(=O)[C@H](C)NC(=O)[C@H](CCCCNC(=O)COCCOCCNC(=O)COCCOCCNC(=O)CC[C@H](NC(=O)CCCCCCCCCCCCCCCCCCC(=O)O)C(=O)O)NC(=O)[C@H](CCC(=O)O)NC(=O)[C@H](CC(=O)O)NC(=O)[C@H](CC(C)C)NC(=O)[C@](C)(CC(C)C)NC(=O)[C@@H](NC(=O)[C@H](CO)NC(=O)[C@@H](NC(=O)[C@H](CC(=O)O)NC(=O)[C@H](CO)NC(=O)[C@@H](NC(=O)[C@](C)(Cc1ccccc1F)NC(=O)[C@@H](NC(=O)CNC(=O)[C@H](CCC(=O)O)NC(=O)C(C)(C)NC(=O)[C@@H](N)Cc1ccc(O)cc1)[C@@H](C)O)[C@@H](C)O)C(C)C)[C@@H](C)CC)[C@@H](C)CC)C(=O)N[C@@H](CCC(=O)O)C(=O)NCC(=O)NCC(=O)N1CCC[C@H]1C(=O)N[C@@H](CO)C(=O)N[C@@H](CO)C(=O)NCC(=O)N[C@@H](C)C(=O)N1CCC[C@H]1C(=O)N1CCC[C@H]1C(=O)N1CCC[C@H]1C(=O)N[C@@H](CO)C(N)=O [Example 191] (H-Y[Aib]EGT[αMePhe(2-F)]TSDVSI[αMeL]LDEK([AEEA-AEEA-γGlu-C20 diacid])AQ[Aib]EFI[dE]YLIEGGPSSGAPPPS-NH2)	0.0356	4.52	348	0.144	0.0645
